In US20090163516A1, “CARBOXAMIDES FOR CONTROLLING UNDESIRED MICRO-ORGANISMS IN PLANT PROTECTION” (Bayer Cropscience AG, priority 2005, published 2009):

Tested on: not listed separately
Assay: logP determination by HPLC on a reverse-phase column (EEC Directive 79/831 Annex V.A8)
Type: physicochemical
Settings: reverse-phase C18 HPLC column; pH 2.3; HPLC reverse-phase C 18, 43° C., 0.1% aqueous phosphoric acid and acetonitrile
Experimental: The determination is carried out in the acidic range at pH 2.3 using the mobile phases 0.1% aqueous phosphoric acid and acetonitrile; linear gradient from 10% acetonitrile to 90% acetonitrile.

Structure (SMILES)	chromatographic logP
O=C(Nc1ncncc1-c1ccc(Cl)c(Cl)c1)c1ccccc1I [Example 8]	2.89
O=C(Nc1ncncc1-c1ccc(Cl)c(Cl)c1)c1ccccc1Cl [Example 10]	2.73
O=C(c1ccccc1Cl)N(C(=O)c1ccccc1Cl)c1ncncc1-c1ccc(Cl)c(Cl)c1 [Example 15]	2.46
O=C(Nc1ncncc1-c1ccc(Cl)cc1)c1ccccc1C(F)(F)F [Example 1, N-[5-(4-chlorophenyl)-4-pyrimidinyl]-2-(trifluoromethyl)benzamide]	2.57
O=C(c1ccccc1Cl)N(C(=O)c1ccccc1Cl)c1ncncc1-c1ccc(C(F)(F)F)cc1 [Example 12]	4.12
Cc1nc(C(F)(F)F)c(C(=O)Nc2ncncc2-c2ccc(Cl)c(Cl)c2)s1 [Example 2, N-[5-(3,4-dichlorophenyl)-4-pyrimidinyl]-2-methyl-4-(trifluoromethyl)-1,3-thiazole-5-carboxamide]	2.85
O=C(Nc1ncncc1-c1ccc(C(F)(F)F)cc1)c1ccccc1Cl [Example 13]	2.62
Cn1cc(C(=O)Nc2ncncc2-c2ccc(Cl)c(Cl)c2)c(C(F)(F)F)n1 [Example 19]	2.46
Nc1ncncc1-c1ccc(Cl)c(Cl)c1 [III-1, 5-(3,4-dichlorophenyl)-4-pyrimidinylamine]	0.87
O=C(Nc1ncncc1-c1ccc(Cl)c(Cl)c1)c1ccccc1C(F)(F)F [Example 6]	2.92
O=C(Nc1ncncc1-c1ccc(Br)cc1)c1ccccc1I [Example 7]	2.61
O=C(c1ccccc1Cl)N(C(=O)c1ccccc1Cl)c1ncncc1-c1ccc(Br)cc1 [Example 14]	2.73
O=C(Nc1ncncc1-c1ccc(Br)cc1)c1ccccc1Cl [Example 9]	2.46

Tested on: Sphaerotheca fuliginea
Assay: Sphaerotheca test (cucumber)/protective
Type: in vivo
Settings: 500 ppm; young cucumber plants sprayed, inoculated one day after treatment; evaluation 7 days after inoculation
Experimental: (§1) To produce a suitable preparation of active compound, 1 part by weight of active compound is mixed with the stated amounts of solvent and emulsifier, and the concentrate is diluted with water to the desired concentration.
To test for protective activity, young cucumber plants are sprayed with the active compound preparation at the stated application rate. One day after the treatment, the plants are inoculated with a spore suspension of Sphaerotheca fuliginea. The plants are then placed in a greenhouse at 70% relative atmospheric humidity and a temperature of 23° C.
(§2) Evaluation is carried out 7 days after the inoculation. 0% means an efficacy which corresponds to that of the control, whereas an efficacy of 100% means that no infection is observed.

Structure (SMILES)	Efficacy in %
O=C(Nc1ncncc1-c1ccc(Cl)c(Cl)c1)c1ccccc1I [drawing 74]	100%
O=C(Nc1ncncc1-c1ccc(Cl)c(Cl)c1)c1ccccc1Cl [drawing 75]	90%
O=C(Nc1ncncc1-c1ccc(Cl)cc1)c1ccccc1C(F)(F)F [drawing 72]	78%
O=C(Nc1ncncc1-c1ccc(OC(F)(F)F)cc1)c1ccccc1I [drawing 76]	95%
Cn1cc(C(=O)Nc2ncncc2-c2ccc(Cl)c(Cl)c2)c(C(F)(F)F)n1 [drawing 77]	95%
O=C(Nc1ncncc1-c1ccc(Br)cc1)c1ccccc1I [drawing 73]	95%

Tested on: Alternaria solani
Assay: Alternaria test (tomato)/protective
Type: in vivo
Settings: 168 h, young tomato plants sprayed, inoculated one day after treatment, evaluation 7 days after inoculation, read-out: Efficacy in %
Experimental: as §1
To test for protective activity, young tomato plants are sprayed with the active compound preparation at the stated application rate. One day after the treatment, the plants are inoculated with a spore suspension of Alternaria solani and then remain at 100% relative humidity and 20° C. for 24 h. The plants then remain at 96% relative atmospheric humidity and a temperature of 20° C.
as §2

Structure (SMILES)	pest or weed control at 500 ppm
O=C(Nc1ncncc1-c1ccc(Br)cc1)c1ccccc1Cl [drawing 81]	100%
O=C(Nc1ncncc1-c1ccc(OC(F)(F)F)cc1)c1ccccc1Cl [drawing 89]	95%
O=C(Nc1ncncc1-c1ccc(C(F)(F)F)cc1)c1ccccc1Cl [drawing 85]	100%
O=C(Nc1ncncc1-c1ccc(Cl)cc1)c1ccccc1C(F)(F)F [drawing 78]	100%
O=C(Nc1ncncc1-c1ccc(OC(F)(F)F)cc1)c1ccccc1I [drawing 83]	100%
Cn1cc(C(=O)Nc2ncncc2-c2ccc(Cl)c(Cl)c2)c(C(F)(F)F)n1 [drawing 90]	95%
Cc1ccsc1C(=O)Nc1ncncc1-c1ccc(OC(F)(F)F)cc1	70%
O=C(Nc1ncncc1-c1ccc(Cl)c(Cl)c1)c1ccccc1I [drawing 80]	100%
O=C(Nc1ncncc1-c1ccc(Br)cc1)c1ccccc1I [drawing 79]	100%
O=C(c1ccccc1Cl)N(C(=O)c1ccccc1Cl)c1ncncc1-c1ccc(C(F)(F)F)cc1 [drawing 84]	100%
O=C(c1ccccc1Cl)N(C(=O)c1ccccc1Cl)c1ncncc1-c1ccc(Cl)c(Cl)c1 [drawing 87]	95%
O=C(Nc1ncncc1-c1ccc(Cl)c(Cl)c1)c1ccccc1Cl [drawing 82]	100%
O=C(c1ccccc1Cl)N(C(=O)c1ccccc1Cl)c1ncncc1-c1ccc(OC(F)(F)F)cc1	70%
O=C(c1ccccc1Cl)N(C(=O)c1ccccc1Cl)c1ncncc1-c1ccc(Br)cc1 [drawing 86]	71%

Tested on: Pyrenophora teres
Assay: Pyrenophora teres test (barley)/protective
Type: in vivo
Settings: 1000 ppm; young barley plants sprayed; evaluation 8 days after inoculation
Experimental: as §1
To test for protective activity, young plants are sprayed with the active compound preparation at the stated application rate. After the spray coating has dried on, the plants are sprayed with a conidia suspension of Pyrenophora teres. The plants remain in an incubation cabin at 20° C. and 100% relative atmospheric humidity for 48 hours. The plants are then placed in a greenhouse at a temperature of about 20° C. and a relative atmospheric humidity of about 80%.
Evaluation is carried out 8 days after the inoculation. 0% means an efficacy which corresponds to that of the control, whereas an efficacy of 100% means that no infection is observed.

Structure (SMILES)	Efficacy in %
O=C(Nc1ncncc1-c1ccc(Cl)c(Cl)c1)c1ccccc1I [drawing 93]	100%
O=C(Nc1ncncc1-c1ccc(Br)cc1)c1ccccc1I [drawing 92]	89%

Tested on: Podosphaera leucotricha
Assay: Podosphaera test (apple)/protective
Type: in vivo
Settings: 100 ppm; young apple plants sprayed; evaluation 10 days after inoculation
Experimental: (§3) To produce a suitable preparation of active compound, 1 part by weight of active compound is mixed with the stated amounts of solvents and emulsifier, and the concentrate is diluted with water to the desired concentration.
To test for protective activity, young plants are sprayed with the active compound preparation at the stated application rate. After the spray coating has dried on, the plants are inoculated with an aqueous spore suspension of the apple mildew pathogen Podosphaera leucotricha. The plants are then placed in a greenhouse at about 23° C. and a relative atmospheric humidity of about 70%.
(§4) Evaluation is carried out 10 days after the inoculation. 0% means an efficacy which corresponds to that of the control, whereas an efficacy of 100% means that no infection is observed.

Structure (SMILES)	Efficacy in %
O=C(Nc1ncncc1-c1ccc(Cl)c(Cl)c1)c1ccccc1I [drawing 95]	93%
O=C(Nc1ncncc1-c1ccc(Br)cc1)c1ccccc1I [drawing 94]	87%
O=C(Nc1ncncc1-c1ccc(C(F)(F)F)cc1)c1ccccc1Cl [drawing 96]	93%

Tested on: Venturia inaequalis
Assay: Venturia test (apple)/protective
Type: in vivo
Settings: 100 ppm; young apple plants sprayed; evaluation 10 days after inoculation
Experimental: as §3
To test for protective activity, young plants are sprayed with the active compound preparation at the stated application rate. After the spray coating has dried on, the plants are inoculated with an aqueous conidia suspension of the apple scab pathogen Venturia inaequalis and then remain in an incubation cabin at about 20° C. and 100% relative atmospheric humidity for 1 day. The plants are then placed in a greenhouse at about 21° C. and a relative atmospheric humidity of about 90%.
as §4

Structure (SMILES)	Efficacy in %
O=C(Nc1ncncc1-c1ccc(Cl)c(Cl)c1)c1ccccc1C(F)(F)F [drawing 98]	95%
Cc1nc(C(F)(F)F)c(C(=O)Nc2ncncc2-c2ccc(Cl)c(Cl)c2)s1 [drawing 97]	95%

Tested on: Botrytis cinerea
Assay: Botrytis test (bean)/protective
Type: in vivo
Settings: 48 h, young bean plants sprayed, size of infected areas two days after inoculation, read-out: Efficacy in %
Experimental: as §3
To test for protective activity, young plants are sprayed with the active compound preparation at the stated application rate. After the spray coating has dried on, two small pieces of agar colonized by Botrytis cinerea are placed onto each leaf. The inoculated plants are placed in a dark chamber at about 20° C. and 100% relative atmospheric humidity.
Two days after the inoculation, the size of the infected areas on the leaves is evaluated. 0% means an efficacy which corresponds to that of the control, whereas an efficacy of 100% means that no infection is observed.

Structure (SMILES)	pest or weed control at 500 ppm
O=C(Nc1ncncc1-c1ccc(OC(F)(F)F)cc1)c1ccccc1Cl [drawing 106]	79%
O=C(Nc1ncncc1-c1ccc(Br)cc1)c1ccccc1Cl [drawing 102]	99%
O=C(Nc1ncncc1-c1ccc(C(F)(F)F)cc1)c1ccccc1Cl [drawing 105]	100%
O=C(Nc1ncncc1-c1ccc(OC(F)(F)F)cc1)c1ccccc1I [drawing 104]	89%
O=C(Nc1ncncc1-c1ccc(Cl)c(Cl)c1)c1ccccc1C(F)(F)F [drawing 100]	80%
Cc1nc(C(F)(F)F)c(C(=O)Nc2ncncc2-c2ccc(Cl)c(Cl)c2)s1 [drawing 99]	91%
O=C(Nc1ncncc1-c1ccc(Cl)c(Cl)c1)c1ccccc1Cl [drawing 103]	91%
O=C(Nc1ncncc1-c1ccc(Cl)c(Cl)c1)c1ccccc1I [drawing 101]	96%
